Experimental data: ChEMBL document CHEMBL4665716, “Identification of a novel series of azabenzimidazole-derived inhibitors of spleen tyrosine kinase” (Bioorg Med Chem Lett, 2020)
pIC50: −log10 of the molar value. Converted amounts (≈) assume the structure as drawn.

What was measured:
[1] = molecular target: Tyrosine-protein kinase SYK (Homo sapiens, UniProt P43405); experiment: Inhibition of SYK (unknown origin)
SUD4 = experiment: Growth inhibition of human SU-DHL-4 cells; format: functional
[2] = molecular target: Voltage-gated inwardly rectifying potassium channel KCNH2 (Homo sapiens, UniProt Q12809); experiment: Inhibition of human ERG
[3] = Intrinsic clearance in rat hepatocytes assessed per 10^6 cells; format: ADME, cell-based, Hepatocyte; conditions: read-out: CLH
[4] = Apparent permeability in human Caco-2 cells; format: ADME, cell-based
[5] = Lipophilicity, logD of compound; format: physicochemical; conditions: octanol/water
[6] = Intrinsic clearance in human liver microsome; format: ADME; conditions: microsomes
[7] = Solubility of compound; format: physicochemical

Sequence of Voltage-gated inwardly rectifying potassium channel KCNH2 (Q12809 whole entry): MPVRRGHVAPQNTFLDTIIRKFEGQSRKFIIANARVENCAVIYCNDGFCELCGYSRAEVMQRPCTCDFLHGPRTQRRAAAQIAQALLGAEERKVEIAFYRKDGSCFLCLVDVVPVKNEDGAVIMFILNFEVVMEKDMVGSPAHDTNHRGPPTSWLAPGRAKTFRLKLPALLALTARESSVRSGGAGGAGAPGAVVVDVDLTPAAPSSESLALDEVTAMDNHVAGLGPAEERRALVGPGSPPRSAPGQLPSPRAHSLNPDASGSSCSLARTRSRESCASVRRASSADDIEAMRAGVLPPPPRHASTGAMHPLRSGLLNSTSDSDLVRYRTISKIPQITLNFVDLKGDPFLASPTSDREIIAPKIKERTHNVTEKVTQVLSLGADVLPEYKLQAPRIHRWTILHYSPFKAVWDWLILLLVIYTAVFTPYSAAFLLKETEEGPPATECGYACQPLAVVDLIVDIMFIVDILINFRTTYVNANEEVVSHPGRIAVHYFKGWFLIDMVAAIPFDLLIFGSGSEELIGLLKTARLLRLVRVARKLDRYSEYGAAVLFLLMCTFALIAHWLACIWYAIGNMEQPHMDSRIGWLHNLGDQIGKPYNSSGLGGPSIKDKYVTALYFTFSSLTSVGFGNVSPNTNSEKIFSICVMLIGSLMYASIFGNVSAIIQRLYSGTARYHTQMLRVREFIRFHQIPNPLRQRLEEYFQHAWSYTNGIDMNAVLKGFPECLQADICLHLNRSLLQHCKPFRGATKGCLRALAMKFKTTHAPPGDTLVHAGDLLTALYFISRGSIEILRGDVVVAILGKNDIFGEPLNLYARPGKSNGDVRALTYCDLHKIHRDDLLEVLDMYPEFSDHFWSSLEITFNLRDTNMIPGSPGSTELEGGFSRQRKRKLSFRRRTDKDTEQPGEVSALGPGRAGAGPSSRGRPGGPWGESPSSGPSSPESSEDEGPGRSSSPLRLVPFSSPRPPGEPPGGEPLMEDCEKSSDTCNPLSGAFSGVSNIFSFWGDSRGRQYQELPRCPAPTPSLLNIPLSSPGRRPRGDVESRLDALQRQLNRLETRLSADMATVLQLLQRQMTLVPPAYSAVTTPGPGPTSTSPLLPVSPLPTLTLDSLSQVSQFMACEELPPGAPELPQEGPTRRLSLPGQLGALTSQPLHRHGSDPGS

Structure (SMILES): COc1ccc(-c2nc3c(NCC4CCNCC4)c(Cl)cnc3[nH]2)cc1
- pIC50 [1]: 8.30

Structure (SMILES): Cn1ccc2c(-c3nc4c(-n5cc(N[C@@H]6CCOC[C@@H]6N)cn5)ccnc4[nH]3)cccc21
- GI50 (SUD4): 210 nM

Structure (SMILES): CN(C)Cc1cnn(-c2ccnc3[nH]c(-c4cn(C)c5ccc(C(=O)N(C)C)cc45)nc23)c1
- pIC50 [2]: < 4.40
- pIC50 [1]: 8.92
- GI50 (SUD4): 1700 nM

Structure (SMILES): Cn1ccc2c(-c3nc4c(-n5cc(CN6CC[C@H](O)C6)cn5)ccnc4[nH]3)cccc21
- pIC50 [2]: < 4.40
- pIC50 [1]: 9.00
- GI50 (SUD4): 1800 nM

Structure (SMILES): CN(C)Cc1cc(-c2ccnc3[nH]c(-c4cccc5c4ccn5C)nc23)nn1C
- pIC50 [2]: 4.89
- pIC50 [1]: 8.55
- GI50 (SUD4): 1000 nM

Structure (SMILES): CNC(=O)c1cc2c(-c3nc4c(-n5cc(CN(C)C)cn5)ccnc4[nH]3)cn(C)c2cn1
- pIC50 [2]: < 4.40
- pIC50 [1]: 9.74
- GI50 (SUD4): 870 nM

Structure (SMILES): CNC(=O)c1ccc2c(c1)c(-c1nc3c(-n4cc(CN(C)C)cn4)ccnc3[nH]1)cn2C
- pIC50 [1]: 9.82
- GI50 (SUD4): 210 nM

Structure (SMILES): Clc1cnc2[nH]c(-c3ccccc3)nc2c1OCC1CCNCC1
- pIC50 [1]: 7.52

Structure (SMILES): Cc1nnc(-c2ncn3ccc(Nc4nccc(-c5cc(CN(C)C)n(C)n5)n4)cc23)o1
- pIC50 [1]: 9.68

Structure (SMILES): Cc1nn(-c2ccnc3[nH]c(-c4cccc5c4ccn5C)nc23)cc1CN1CC[C@H](O)C1
- pIC50 [2]: 4.57
- pIC50 [1]: 8.34
- GI50 (SUD4): 1200 nM

Structure (SMILES): Cc1nnc(-c2ccc3c(c2)c(-c2nc4c(-n5cc(CN(C)C)c(C)n5)ccnc4[nH]2)cn3C)o1
- pIC50 [1]: 10.01
- GI50 (SUD4): 290 nM

Structure (SMILES): CN(C)Cc1cnn(-c2ccnc3[nH]c(-c4cn(C)c5ccc(S(C)(=O)=O)cc45)nc23)c1
- pIC50 [1]: 10.11
- GI50 (SUD4): 440 nM

Structure (SMILES): CC(=O)Nc1ccc2c(c1)c(-c1nc3c(-n4cc(CN(C)C)c(C)n4)ccnc3[nH]1)cn2C
- pIC50 [1]: 9.77
- GI50 (SUD4): 200 nM

Structure (SMILES): Cn1ccc2c(-c3nc4c(-n5cc(CN6CC[C@@H](O)C6)cn5)ccnc4[nH]3)cccc21
- pIC50 [2]: < 4.48
- pIC50 [1]: 9.32
- GI50 (SUD4): 1200 nM

Structure (SMILES): CN(c1cnn(-c2ccnc3[nH]c(-c4cccc5c4ccn5C)nc23)c1)[C@@H]1CCOC[C@@H]1N
- pIC50 [2]: 5.04
- pIC50 [1]: 8.26
- GI50 (SUD4): 1100 nM

Structure (SMILES): Cn1ccc2c(-c3nc4c(OCC5CCNCC5)c(Cl)cnc4[nH]3)cccc21
- pIC50 [1]: 8.45

Structure (SMILES): Cc1nn(-c2ccnc3[nH]c(-c4cccc5c4ccn5C)nc23)cc1CN1CC[C@@H](O)C1
- hepatocyte CLint [3]: 40 µL/min/1e6 cells
- Papp [4]: 0.63 ×10⁻⁶ cm/s
- pIC50 [2]: 4.51
- logD [5]: 2.9
- CLint [6]: 63 µL/min/mg
- solubility [7]: < 20 µM
- pIC50 [1]: 9.04
- GI50 (SUD4): 1100 nM

Structure (SMILES): Cc1nn(-c2ccnc3[nH]c(-c4cccc5c4ccn5C)nc23)cc1CN(C)C
- hepatocyte CLint [3]: 127 µL/min/1e6 cells
- pIC50 [2]: 5.59
- logD [5]: 2.8
- CLint [6]: 37 µL/min/mg
- solubility [7]: 89 µM (≈ 34.3 µg/mL)
- pIC50 [1]: 9.08
- GI50 (SUD4): 770 nM
